Data as given in the supplement of paper PMC8882468.

Experiments:
Test in all cases: CTG-3D luminescence at 96 h relative to day-0 seeding control (ratio to day 0); higher = more growth / less cytotoxicity; PDxO 3D drug screen (set 2), 96 h, CTG-3D normalised to day-0 seeding control.
HCI-001 = tested on: HCI-001 (organoid from a triple-negative breast cancer xenograft)
HCI-027 = tested on: HCI-027 (organoid from a triple-negative breast cancer xenograft)
HCI-024 = tested on: HCI-024 (organoid from a breast cancer xenograft)
HCI-003.E2 = tested on: HCI-003.E2 (organoid from an ER-positive breast cancer xenograft)
HCI-005.E2 = tested on: HCI-005.E2 (organoid from a breast cancer xenograft with a HER2-positive history)
MDA-MB-231 = tested on: MDA-MB-231

CO[C@H]1C[C@@H]2CC[C@@H](C)[C@@](O)(O2)C(=O)C(=O)N2CCCC[C@H]2C(=O)O[C@H]([C@H](C)C[C@@H]2CC[C@@H](O)[C@H](OC)C2)CC(=O)[C@H](C)/C=C(\C)[C@@H](O)[C@@H](OC)C(=O)[C@H](C)C[C@H](C)/C=C/C=C/C=C/1C [rapamycin]
CTG-3D luminescence at 96 h
Conditions	12.5 pM	0.00025 µM	0.005 µM	0.1 µM	1 µM	10 µM	100 µM	625 fM
HCI-001, days in culture: 365	2.01	1.51	1.8	1.8	1.28	1.67	0.0179	1.4
HCI-001, days in culture: 397	1.46	1.71	1.53	1.84	1.22	1.87	0.017	1.1
HCI-001, days in culture: 401	1.07	1.45	1.1	1.26	0.98	1.23	0.00642	0.961
HCI-024, days in culture: 202	1.07	1.14	0.789	1.11	0.752	1.36	0.00983	1.53
HCI-024, days in culture: 231	1.39	1.11	1.27	0.84	0.989	0.927	0.00464	1.06
HCI-024, days in culture: 254	1.73	0.635	1.21	0.879	0.958	1.05	0.00976	3.42
HCI-027, days in culture: 145	1.48	1.37	1.25	1.15	1.16	0.781	0.00647	1.5
HCI-027, days in culture: 158	1.19	1.63	1.42	2.35	1.1	2.43	0.0139	4.51
HCI-027, days in culture: 164	3.14	1.63	2.5	1.4	1.59	1.86	0.0163	1.82
HCI-027, days in culture: 176	3.28	2.48	0.934	2.11	1.69	1.25	0.00482	2.21
HCI-027, days in culture: 186	1.07	0.887	1.74	1.07	0.381	1.97	0.00722	0.992

CTG-3D luminescence at 96 h
Conditions	12.5 pM	0.00025 µM	0.005 µM	0.1 µM	1 µM	10 µM	100 µM	625 fM
HCI-003.E2	1.08	1.04	0.947	0.798	1.03	0.994	0.0195	1.32
HCI-005.E2	1.21	1.28	1.46	1.72	1.73	1.49	0.0167	1.52
MDA-MB-231	4.67	4.8	4.88	4.66	4.92	4.59	0.0454	–

CC(C)n1nc(-c2ccc3oc(N)nc3c2)c2c(N)ncnc21 [sapanisertib]
CTG-3D luminescence at 96 h
Conditions	12.5 pM	0.00025 µM	0.005 µM	0.1 µM	1 µM	10 µM	100 µM	625 fM
HCI-001, days in culture: 365	2.81	2.2	2.02	1.47	0.787	0.663	0.424	1.97
HCI-001, days in culture: 397	1.78	1.58	1.37	0.91	0.823	0.77	0.471	1.56
HCI-001, days in culture: 401	1.48	1.97	1.53	0.815	0.544	0.657	0.396	1.63
HCI-024, days in culture: 202	1.13	0.881	0.616	0.616	0.515	0.634	0.155	1.14
HCI-024, days in culture: 231	1.11	1.3	1.01	0.69	0.589	0.241	0.0656	0.868
HCI-024, days in culture: 254	2.43	1.09	1.25	1.1	0.518	0.541	0.118	1.6
HCI-027, days in culture: 145	1.73	1.87	1.67	0.675	0.62	0.3	0.158	1.76
HCI-027, days in culture: 158	1.38	2.26	2.09	1.46	0.941	0.992	0.124	3.36
HCI-027, days in culture: 164	1.86	1.51	1.15	1.08	1.1	0.369	0.41	2.35
HCI-027, days in culture: 176	3.48	2.27	1.45	1.22	0.927	0.364	0.195	2.69
HCI-027, days in culture: 186	0.934	1.54	1.53	1.25	0.548	0.717	0.142	2.62

CTG-3D luminescence at 96 h
Conditions	12.5 pM	0.00025 µM	0.005 µM	0.1 µM	1 µM	10 µM	100 µM	625 fM
HCI-003.E2	2.44	2.37	2.1	0.144	0.0411	0.0196	0.00904	2.87
HCI-005.E2	1.96	2.23	2.42	1.23	0.685	0.506	0.0873	1.98
MDA-MB-231	5.39	5.2	4.98	–	2.67	1.74	0.758	5.28
